# Data from ChEMBL document CHEMBL4007479, “Immunoregulatory effect assessment of a novel melanin and its carboxymethyl derivative” (2017).
# Columns and labels:
# Format in all cases: functional
# Mus musculus [1] = test: (§1) Immuno-regulatory activity in cyclophosphamide-induced immunocompromised Kunming mouse model assessed as MDA content in serum at 200 mg/kg administered once daily via gavage for 30 consecutive days measured after 12 hrs of fasting following last dose on day 30 (reference value: 2.77 +/- 0.05)
# Mus musculus [2] = test: (§2) Immuno-regulatory activity in cyclophosphamide-induced immunocompromised Kunming mouse model assessed as macrophage elimination ability against foreign substances by measuring carbon clearance index at 50 mg/kg administered once daily via gavage for 30 consecutive days measured after 12 hrs of fasting following last dose (reference value: 2.68 +/- 0.3)
# Mus musculus [3] = test: Immuno-regulatory activity in cyclophosphamide-induced immunocompromised Kunming mouse model assessed as MDA content in liver at 50 mg/kg administered once daily via gavage for 30 consecutive days measured after 12 hrs of fasting following last dose on day 30 (reference value: 3.34 +/- 0.18)
# Mus musculus [4] = test: as §1, with “peritoneal macrophage phagocytosis index” for “MDA content in serum”, “by Giemsa staining based assay” for “on day 30”, “0.5” for “2.77”, “0.03)” for “0.05)”
# Mus musculus [5] = test: (§3) Immuno-regulatory activity in cyclophosphamide-induced immunocompromised Kunming mouse model assessed as body weight at 50 mg/kg administered once daily via gavage for 30 consecutive days measured after 12 hrs of fasting following last dose (reference value: 30.3 +/- 2.47 mg)
# Mus musculus [6] = test: Immuno-regulatory activity in cyclophosphamide-induced immunocompromised Kunming mouse model assessed as MDA content in kidney at 50 mg/kg administered once daily via gavage for 30 consecutive days measured after 12 hrs of fasting following last dose on day 30 (reference value: 2.35 +/- 0.06)
# Mus musculus [7] = test: (§4) Immuno-regulatory activity in cyclophosphamide-induced immunocompromised Kunming mouse model assessed as SOD activity in liver at 200 mg/kg administered once daily via gavage for 30 consecutive days measured after 12 hrs of fasting following last dose on day 30 (reference value: 160.65 +/- 3.12)
# Mus musculus [8] = test: as §3, with “peritoneal macrophage phagocytosis rate” for “body weight”, “dose by Giemsa staining based assay” for “dose”, “21.33” for “30.3”, “0.98%)” for “2.47 mg)”
# Mus musculus [9] = test: (§5) Immuno-regulatory activity in cyclophosphamide-induced immunocompromised Kunming mouse model assessed as SOD activity in spleen at 50 mg/kg administered once daily via gavage for 30 consecutive days measured after 12 hrs of fasting following last dose on day 30 (reference value: 94.84 +/- 3.28)
# Mus musculus [10] = test: as §4, with “peritoneal macrophage phagocytosis rate” for “SOD activity in liver”, “by Giemsa staining based assay” for “on day 30”, “21.33” for “160.65”, “0.98%)” for “3.12)”
# Mus musculus [11] = test: as §5, with “enhancement of B cell-mediated humoral immunity by measuring SRBC half hemolysis value” for “SOD activity in spleen”, “days and SRBC immunization on day 26” for “days”, “173.42” for “94.84”, “7.75)” for “3.28)”
# Mus musculus [12] = test: as §3, with “recovery from thymus damage by measuring thymus” for “body”, “weight index” for “weight”, “0.98” for “30.3”, “0.14)” for “2.47 mg)”
# Mus musculus [13] = test: as §1, with “enhancement of B cell-mediated humoral immunity by measuring antibody producing cells” for “MDA content”, “spleen against SRBC” for “serum”, “0.48” for “2.77”
# Mus musculus [14] = test: as §3, with “recovery from thymus damage by measuring thymus” for “body”, “weight index” for “weight”, “200” for “50”, “0.98” for “30.3”, “0.14)” for “2.47 mg)”
# Mus musculus [15] = test: (§6) Immuno-regulatory activity in cyclophosphamide-induced immunocompromised Kunming mouse model assessed as enhancement of T cell-mediated delayed-type hypersensitivity by measuring increase in paw weight at 200 mg/kg administered once daily via gavage for 30 consecutive days and SRBC immunization on day 26 measured after 12 hrs of fasting following last dose on day 30 relative to control
# Mus musculus [16] = test: as §6, with “B” for “T”, “humoral immunity” for “delayed-type hypersensitivity”, “SRBC half hemolysis value” for “increase in paw weight”, “(reference value: 173.42 +/- 7.75)” for “relative to control”
# Mus musculus [17] = test: Immuno-regulatory activity in cyclophosphamide-induced immunocompromised Kunming mouse model assessed as GSH-PX activity in kidney at 50 mg/kg administered once daily via gavage for 30 consecutive days measured after 12 hrs of fasting following last dose on day 30 (reference value: 10.12 +/- 0.25)
# Mus musculus [18] = test: Immuno-regulatory activity in cyclophosphamide-induced immunocompromised Kunming mouse model assessed as SOD activity in liver at 50 mg/kg administered once daily via gavage for 30 consecutive days measured after 12 hrs of fasting following last dose on day 30 (reference value: 160.65 +/- 3.12)
# Mus musculus [19] = test: (§7) Immuno-regulatory activity in cyclophosphamide-induced immunocompromised Kunming mouse model assessed as concanavalin A-induced lymphocyte proliferation stimulate index in spleen at 50 mg/kg administered once daily via gavage for 30 consecutive days measured after 12 hrs of fasting following last dose on day 30 by MTT assay (reference value: 0.054 +/- 0.001)
# Mus musculus [20] = test: Immuno-regulatory activity in cyclophosphamide-induced immunocompromised Kunming mouse model assessed as GSH-PX activity in liver at 50 mg/kg administered once daily via gavage for 30 consecutive days measured after 12 hrs of fasting following last dose on day 30 (reference value: 9.52 +/- 0.26)
# Mus musculus [21] = test: Immuno-regulatory activity in cyclophosphamide-induced immunocompromised Kunming mouse model assessed as SOD activity in serum at 200 mg/kg administered once daily via gavage for 30 consecutive days measured after 12 hrs of fasting following last dose on day 30 (reference value: 91.98 +/- 3.32)
# Mus musculus [22] = test: Immuno-regulatory activity in cyclophosphamide-induced immunocompromised Kunming mouse model assessed as GSH-PX activity in spleen at 50 mg/kg administered once daily via gavage for 30 consecutive days measured after 12 hrs of fasting following last dose on day 30 (reference value: 7.97 +/- 1.21)
# Mus musculus [23] = test: as §5, with “enhancement of B cell-mediated humoral immunity by measuring antibody producing cells” for “SOD activity”, “spleen against SRBC” for “spleen”, “0.48” for “94.84”, “0.05)” for “3.28)”
# Mus musculus [24] = test: Immuno-regulatory activity in cyclophosphamide-induced immunocompromised Kunming mouse model assessed as SOD activity in serum at 50 mg/kg administered once daily via gavage for 30 consecutive days measured after 12 hrs of fasting following last dose on day 30 (reference value: 91.98 +/- 3.32)
# Mus musculus [25] = test: Immuno-regulatory activity in cyclophosphamide-induced immunocompromised Kunming mouse model assessed as MDA content in serum at 50 mg/kg administered once daily via gavage for 30 consecutive days measured after 12 hrs of fasting following last dose on day 30 (reference value: 2.77 +/- 0.05)
# Mus musculus [26] = test: Immuno-regulatory activity in cyclophosphamide-induced immunocompromised Kunming mouse model assessed as SOD activity in kidney at 50 mg/kg administered once daily via gavage for 30 consecutive days measured after 12 hrs of fasting following last dose on day 30 (reference value: 198.82 +/- 9.98)
# Mus musculus [27] = test: as §7, with “200” for “50”
# Mus musculus [28] = test: Immuno-regulatory activity in cyclophosphamide-induced immunocompromised Kunming mouse model assessed as MDA content in spleen at 50 mg/kg administered once daily via gavage for 30 consecutive days measured after 12 hrs of fasting following last dose on day 30 (reference value: 4.9 +/- 0.11)
# Mus musculus [29] = test: Immuno-regulatory activity in cyclophosphamide-induced immunocompromised Kunming mouse model assessed as GSH-PX activity in serum at 50 mg/kg administered once daily via gavage for 30 consecutive days measured after 12 hrs of fasting following last dose on day 30 (reference value: 5.66 +/- 0.17)
# Mus musculus [30] = test: Immuno-regulatory activity in cyclophosphamide-induced immunocompromised Kunming mouse model assessed as MDA content in kidney at 200 mg/kg administered once daily via gavage for 30 consecutive days measured after 12 hrs of fasting following last dose on day 30 (reference value: 2.35 +/- 0.06)
# Mus musculus [31] = test: as §3, with “recovery from spleen damage by measuring spleen” for “body”, “weight index” for “weight”, “4.59” for “30.3”, “0.28)” for “2.47 mg)”
# Mus musculus [32] = test: as §6, with “50” for “200”
# Mus musculus [33] = test: as §3, with “peritoneal macrophage phagocytosis index” for “body weight”, “dose by Giemsa staining based assay” for “dose”, “0.5” for “30.3”, “0.03)” for “2.47 mg)”
# Mus musculus [34] = test: (§8) Immuno-regulatory activity in cyclophosphamide-induced immunocompromised Kunming mouse model assessed as body weight at 200 mg/kg administered once daily via gavage for 30 consecutive days measured after 12 hrs of fasting following last dose (reference value: 30.3 +/- 2.47 mg)
# Mus musculus [35] = test: as §8, with “recovery from spleen damage by measuring spleen” for “body”, “weight index” for “weight”, “4.59” for “30.3”, “0.28)” for “2.47 mg)”
# Mus musculus [36] = test: Immuno-regulatory activity in cyclophosphamide-induced immunocompromised Kunming mouse model assessed as GSH-PX activity in serum at 200 mg/kg administered once daily via gavage for 30 consecutive days measured after 12 hrs of fasting following last dose on day 30 (reference value: 5.66 +/- 0.17)
# Mus musculus [37] = test: Immuno-regulatory activity in cyclophosphamide-induced immunocompromised Kunming mouse model assessed as MDA content in liver at 200 mg/kg administered once daily via gavage for 30 consecutive days measured after 12 hrs of fasting following last dose on day 30 (reference value: 3.34 +/- 0.18)
# Mus musculus [38] = test: Immuno-regulatory activity in cyclophosphamide-induced immunocompromised Kunming mouse model assessed as GSH-PX activity in kidney at 200 mg/kg administered once daily via gavage for 30 consecutive days measured after 12 hrs of fasting following last dose on day 30 (reference value: 10.12 +/- 0.25)
# Mus musculus [39] = test: Immuno-regulatory activity in cyclophosphamide-induced immunocompromised Kunming mouse model assessed as MDA content in spleen at 200 mg/kg administered once daily via gavage for 30 consecutive days measured after 12 hrs of fasting following last dose on day 30 (reference value: 4.9 +/- 0.11)
# Mus musculus [40] = test: Immuno-regulatory activity in cyclophosphamide-induced immunocompromised Kunming mouse model assessed as SOD activity in spleen at 200 mg/kg administered once daily via gavage for 30 consecutive days measured after 12 hrs of fasting following last dose on day 30 (reference value: 94.84 +/- 3.28)
# Mus musculus [41] = test: Immuno-regulatory activity in cyclophosphamide-induced immunocompromised Kunming mouse model assessed as GSH-PX activity in liver at 200 mg/kg administered once daily via gavage for 30 consecutive days measured after 12 hrs of fasting following last dose on day 30 (reference value: 9.52 +/- 0.26)
# Mus musculus [42] = test: Immuno-regulatory activity in cyclophosphamide-induced immunocompromised Kunming mouse model assessed as SOD activity in kidney at 200 mg/kg administered once daily via gavage for 30 consecutive days measured after 12 hrs of fasting following last dose on day 30 (reference value: 198.82 +/- 9.98)
# Mus musculus [43] = test: as §2, with “200” for “50”
# Mus musculus [44] = test: Immuno-regulatory activity in cyclophosphamide-induced immunocompromised Kunming mouse model assessed as GSH-PX activity in spleen at 200 mg/kg administered once daily via gavage for 30 consecutive days measured after 12 hrs of fasting following last dose on day 30 (reference value: 7.97 +/- 1.21)
compound,measurement,setting,value
O=C(O)C1c2cc(O)c(O)c3sc4c5c(O)[nH]c6cc(O)c(O)c(c65)c5c6ccc7ccc1c(c76)n(c23)c45 (centres undefined),Activity,Mus musculus [1],2
same,Activity_index,Mus musculus [2],2.95
same,Activity,Mus musculus [3],2.99
same,Activity_index,Mus musculus [4],0.79
same,Activity,Mus musculus [5],32.9 g
same,Activity,Mus musculus [6],2.07
same,Activity,Mus musculus [7],202.26
same,Activity,Mus musculus [8],22.14%
same,Activity,Mus musculus [9],106.25
same,Activity,Mus musculus [10],26.31%
same,Activity,Mus musculus [11],175.62
same,Activity_index,Mus musculus [12],1.01 mg/g
same,Activity,Mus musculus [13],0.62
same,Activity_index,Mus musculus [14],1.37 mg/g
same,Activity,Mus musculus [15],79.3%
same,Activity,Mus musculus [16],182.25
same,Activity,Mus musculus [17],11.57
same,Activity,Mus musculus [18],174.51
same,Activity_index,Mus musculus [19],0.061
same,Activity,Mus musculus [20],9.76
same,Activity,Mus musculus [21],104.09
same,Activity,Mus musculus [22],8.76
same,Activity,Mus musculus [23],0.52
same,Activity,Mus musculus [24],94.15
same,Activity,Mus musculus [25],2.66
same,Activity,Mus musculus [26],218.42
same,Activity_index,Mus musculus [27],0.072
same,Activity,Mus musculus [28],4.54
same,Activity,Mus musculus [29],5.76
same,Activity,Mus musculus [30],1.83
same,Activity_index,Mus musculus [31],4.61 mg/g
same,Activity,Mus musculus [32],42.87%
same,Activity_index,Mus musculus [33],0.53
same,Activity,Mus musculus [34],35.7 g
same,Activity_index,Mus musculus [35],5.13 mg/g
same,Activity,Mus musculus [36],7.27
same,Activity,Mus musculus [37],2.25
same,Activity,Mus musculus [38],16.79
same,Activity,Mus musculus [39],3.13
same,Activity,Mus musculus [40],110.54
same,Activity,Mus musculus [41],16.1
same,Activity,Mus musculus [42],233.49
same,Activity_index,Mus musculus [43],3.54
same,Activity,Mus musculus [44],11.99
